Results published in the NIST ThermoML archive (doi:10.1016/j.fluid.2008.11.013).
Numbers after ± are expanded uncertainties.

Conditions: 101.33 kPa, Liquid, Vibrating tube method

CCCCCC[N+]1(C)CCCC1.O=S(=O)([N-]S(=O)(=O)C(F)(F)F)C(F)(F)F
mass density (278.16 K): 1352.1 ± 13 kg/m3
mass density (283.14 K): 1347.7 ± 13 kg/m3
mass density (288.14 K): 1343.4 ± 13 kg/m3
mass density (293.15 K): 1339.5 ± 13 kg/m3
mass density (298.14 K): 1335.3 ± 13 kg/m3
mass density (303.14 K): 1331.1 ± 12 kg/m3
mass density (308.14 K): 1326.8 ± 12 kg/m3
mass density (313.14 K): 1322.6 ± 12 kg/m3
mass density (318.14 K): 1318.3 ± 12 kg/m3
mass density (323.14 K): 1314.1 ± 12 kg/m3
mass density (328.14 K): 1309.9 ± 12 kg/m3
mass density (333.14 K): 1305.6 ± 12 kg/m3
mass density (338.15 K): 1301.4 ± 12 kg/m3
mass density (343.14 K): 1297.1 ± 12 kg/m3

CCCCCCCC[N+]1(C)CCCC1.O=S(=O)([N-]S(=O)(=O)C(F)(F)F)C(F)(F)F
mass density (298.15 K): 1291.2 ± 12 kg/m3
mass density (303.15 K): 1286.9 ± 12 kg/m3
mass density (308.14 K): 1283 ± 12 kg/m3
mass density (313.15 K): 1279.1 ± 12 kg/m3
mass density (318.15 K): 1275.1 ± 11 kg/m3
mass density (323.14 K): 1271.4 ± 11 kg/m3
mass density (328.14 K): 1267.5 ± 11 kg/m3
mass density (333.14 K): 1263.7 ± 11 kg/m3
mass density (338.14 K): 1259.7 ± 11 kg/m3
mass density (343.14 K): 1255.7 ± 11 kg/m3
mass density (348.15 K): 1251.7 ± 11 kg/m3
